Results on 3 compounds are retold here after patent US7241771B2, “Oxepane isomer of 42-O-(2-hydroxy)ethyl-rapamycin” (Wyeth, priority 2005, dated 2007).

In brackets after ≈: the same amount, converted by molar mass.

Holding throughout (assay): Antifungal activity, microtiter MIC
What all share (assay type): cell-based

The subject of one assay is Candida tropicalis. As to conditions: RPMI 1640, 35° C., 24–48 hours. The method, then:
(§1) Antifungal activity for the compound of this invention was established by evaluation against several strains of fungi. Briefly, the following procedure was used to evaluate such activity. A 96 well microtiter plate was filled (50 μL/well) with RPMI 1640. The compounds to be evaluated were placed in appropriate wells and serial diluted in successive wells to provide several dilutions. The concentrations ranged from […]. An adjusted inoculum of fungi (50 μL) was added to each well and plates were incubated at 35° C. for 24–48 hours.

Another assay concerns Candida rugosa. The conditions noted are these: Candida rugosa strain 94-10, RPMI 1640, 35° C., 24–48 hours. The protocol: as §1
The subject of the next assay is Candida lusitaniae. The conditions noted are these: Candida lusitaniae strain 94-3, RPMI 1640, 35° C., 24–48 hours. The method, then: as §1
For a further assay, the system named is Aspergillus fumigatus. As to conditions: Aspergillus fumigatus strain ATCC 26933, RPMI 1640, 35° C., 24–48 hours. The method, then: as §1
Another assay deals with Candida pseudotropicalis. As to conditions: Candida pseudotropicalis strain ATCC 28838, RPMI 1640, 35° C., 24–48 hours. The protocol:
as §1

Another assay deals with Aspergillus flavusr. As to conditions: Aspergillus flavusr strain S506; RPMI 1640, 35° C., 24–48 hours. The method, then:
as §1

The test system of another assay is Candida albicans. As to conditions: RPMI 1640, 35° C., 24–48 hours; for MIC: Candida albicans. The method, then:
as §1

The next assay has as its system Aspergillus niger. As to conditions: Aspergillus niger strain ATCC 16404, RPMI 1640, 35° C., 24–48 hours. The method, then:
as §1

In the next assay the test system is Candida parapsilosis. As to conditions: RPMI 1640, 35° C., 24–48 hours; for MIC: Lodderomyces parapsilosis. The protocol:
as §1

The test system of another assay is Candida zeylanoided. The conditions noted are these: Candida zeylanoided strain 94-15; RPMI 1640, 35° C., 24–48 hours. The protocol:
as §1

Another assay concerns Candida krussii. The conditions noted are these: Candida krussii strain 94-2; RPMI 1640, 35° C., 24–48 hours. The method, then: as §1
Setting [1] is: Candida tropicalis strain 94-13.
Setting [2] is: Candida tropicalis strain 94-14.
[3] abbreviates: Candida albicans strain ATCC 90028.
The mark [4] stands for this setting: Candida parapsilosis strain 94-8.
[5] abbreviates: Candida parapsilosis strain 94-9.
[6] abbreviates: Candida parapsilosis strain ATCC 90018.

One may read the MIC as the lowest concentration that inhibits growth of the organism. High values mean a less susceptible organism, low ones a more susceptible organism.

Regarding `C[C@@H]1[C@H](O)[C@@H](C)/C=C/C=C/C=C/C=C/C=C/C=C/C=C/[C@H](O[C@@H]2O[C@H](C)[C@@H](O)[C@H](N)[C@@H]2O)C[C@@H]2O[C@](O)(C[C@@H](O)C[C@@H](O)[C@H](O)CC[C@@H](O)C[C@@H](O)CC(=O)O[C@H]1C)C[C@H](O)[C@H]2C(=O)O` [Amphotericin B], the “Antifungal Activity (MIC)” value was 0.125 µg/mL in the assay on Candida tropicalis (setting [1]); 0.125 µg/mL with Candida tropicalis (setting [2]); 0.25 µg/mL in the assay on Candida rugosa; 0.125 µg/mL with Candida lusitaniae; 0.25 µg/mL in the assay on Aspergillus fumigatus; “≦0.06 μg/mL” in the assay with Candida pseudotropicalis. The “Antifungal Activity (MIC)” value is 0.50 µg/mL with Aspergillus flavusr; 0.125 µg/mL in the assay on Candida albicans (Candida albicans strain 94-1); “≦0.06 μg/mL” with Candida albicans (Candida albicans strain 1063); “≦0.06 μg/mL” in the assay on Candida albicans (Candida albicans strain 1117); 0.125 µg/mL in the assay with Candida albicans (setting [3]); 0.25 µg/mL with Aspergillus niger. In addition, the “Antifungal Activity (MIC)” value with Candida parapsilosis (setting [4]) is “≦0.06 μg/mL”; in the assay with Candida parapsilosis (setting [5]), 0.125 µg/mL; with Candida parapsilosis (setting [6]), “≦0.06 μg/mL”; with Candida zeylanoided, 0.25 µg/mL; with Candida krussii it was 0.125 µg/mL.

Take `COC1CC2CCC(C)C(=O)C(O)(O2)C(=O)N2CCCCC2C(=O)OC(C(C)CC2CCC(OCCO)C(OC)C2)CC(=O)C(C)/C=C(\C)C(O)C(OC)C(=O)C(C)CC(C)/C=C/C=C/C=C/1C` (stereo not drawn) [Compound, 1,17-dihydroxy-11-{2-[4-(2-hydroxy-ethoxy)-3-methoxy-cyclohexyl]-1methyl-ethyl}-18,29-dimethoxy-14,16,20,22,28,34-hexamethyl-10,36-dioxa-3-aza-tricyclo[29.4.1.0˜3,8]hexatriaconta-15,23,25,27-tetraen-2,9,13,19,35-pentaone]: the “Antifungal Activity (MIC)” value with Candida tropicalis (setting [1]) and in the assay on Candida parapsilosis (setting [4]) was 0.125 µg/mL each time. In addition, the MIC with Candida tropicalis (setting [2]) was 0.125 µg/mL (≈ 0.13 µM); in the assay on Candida rugosa (Diutina rugosa) it was 0.25 µg/mL (≈ 0.261 µM); against Candida lusitaniae (Clavispora lusitaniae) it was no more than 0.06 µg/mL; in the assay with Aspergillus fumigatus (ATCC26933), 32 µg/mL (≈ 33.4 µM); with Candida pseudotropicalis (Kluyveromyces marxianus, ATCC28838), no more than 0.06 µg/mL; against Aspergillus flavusr, 8 µg/mL (≈ 8.35 µM). Moreover, the MIC is 0.125 µg/mL (≈ 0.13 µM) against Candida albicans (ATCC90028, Candida albicans strain ATCC 90028); 0.25 µg/mL (≈ 0.261 µM) in the assay on Candida albicans (Candida albicans strain 94-1); no more than 0.06 µg/mL with Candida albicans (Candida albicans strain 1063); 0.125 µg/mL (≈ 0.13 µM) in the assay with Candida albicans (Candida albicans strain 1117); 8 µg/mL (≈ 8.35 µM) in the assay on Aspergillus niger (ATCC16404); 0.25 µg/mL (≈ 0.261 µM) against Candida parapsilosis (ATCC90018, Candida parapsilosis strain ATCC 90018). For the same compound, the MIC against Candida parapsilosis (setting [5]) is 0.125 µg/mL (≈ 0.13 µM); against Candida zeylanoided, no more than 0.06 µg/mL; in the assay on Candida krussii, 0.5 µg/mL (≈ 0.522 µM).

For the compound `C[C@@H]1[C@H](O)[C@@H](C)/C=C/C=C/CC/C=C/C=C/C=C/C=C/C(O[C@H]2O[C@H](C)[C@@H](O)[C@H](N)[C@@H]2O)CC2O[C@](O)(CC(O)C(O)CCC(O)CC(O)CC(O)CC(=O)O[C@H]1C)CC(O)C2C(=O)O` (stereo partly drawn) [Nystatin], the “Antifungal Activity (MIC)” value in the assay on Candida tropicalis (setting [1]) is 1 µg/mL; in the assay with Candida tropicalis (setting [2]), 2 µg/mL; in the assay on Candida rugosa, 1 µg/mL; with Candida lusitaniae, 1 µg/mL; with Aspergillus fumigatus, 2 µg/mL; with Candida pseudotropicalis, 1 µg/mL. Further, the “Antifungal Activity (MIC)” value is 2 µg/mL with Aspergillus flavusr; 2 µg/mL with Candida albicans (Candida albicans strain 94-1); 1 µg/mL with Candida albicans (Candida albicans strain 1063); 1 µg/mL in the assay on Candida albicans (Candida albicans strain 1117); 1 µg/mL in the assay on Candida albicans (setting [3]); 1 µg/mL in the assay on Aspergillus niger. Moreover, the “Antifungal Activity (MIC)” value turned out to be 2 µg/mL with Candida parapsilosis (setting [4]); 1 µg/mL in the assay with Candida parapsilosis (setting [5]); 2 µg/mL in the assay with Candida parapsilosis (setting [6]); 1 µg/mL in the assay with Candida zeylanoided; 1 µg/mL in the assay with Candida krussii.
